Earlier results in US9072916B2, “Aqueous anti-perspiration formulation” (BEIERSDORF AG, priority 2004, dated 2015).

Settings: in water, alcohol, ether and 2-propanol

Compound: O=C(O)C(O)c1ccccc1 (stereo not shown) [Mandelic acid, mandelic acid]
- solubility: readily soluble
